# From the supplement of paper PMC6045584
# ± gives the standard deviation of the averaged measurements.
# Columns and labels:
# Experiment in all cases: surviving fraction relative to DMSO-only wells; higher = less growth inhibition
# Conditions in all cases: exposure time: 5 days
# CELECOXIB = compound: Cc1ccc(-c2cc(C(F)(F)F)nn2-c2ccc(S(N)(=O)=O)cc2)cc1 [CELECOXIB]
# Outline: (§1)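 Luminescence normalised to the median of DMSO-only wells defines surviving fraction, with viability read by CellTiter-Glo. Signal was recorded after 10 minutes at room temperature, once log-phase tumour cell lines seeded at 250–500 cells per well in 384-well plates had spent 24 hours settling and then five days under continuous exposure to inhibitors at 0.5, 1, 5, 10, 50, 100, 500 and 1000 nM.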
# GEFITINIB = compound: COc1cc2ncnc(Nc3ccc(F)c(Cl)c3)c2cc1OCCCN1CCOCC1 [GEFITINIB]
# Outline: as §1
# [1] = compound: CC(=O)NCC(=O)N1[C@@H]2CC[C@H]1c1ccc(Nc3ncc(C(F)(F)F)c(NC4CCC4)n3)cc12
# Outline: as §1
# OSI-906 = compound: C[C@]1(O)C[C@@H](c2nc(-c3ccc4ccc(-c5ccccc5)nc4c3)c3c(N)nccn32)C1 [OSI-906]
# Outline: as §1
# PACLITAXEL = compound: CC(=O)O[C@H]1C(=O)[C@@]2(C)[C@H]([C@H](OC(=O)c3ccccc3)[C@]3(O)C[C@H](OC(=O)[C@H](O)[C@@H](NC(=O)c4ccccc4)c4ccccc4)C(C)=C1C3(C)C)[C@]1(OC(C)=O)CO[C@@H]1C[C@@H]2O [PACLITAXEL]
# Outline: as §1
test system,measurement,setting,value
HOS BONE,surviving fraction,CELECOXIB; 0.5 nM,1 ± 0.013
same,surviving fraction,CELECOXIB; 1 nM,1.028 ± 0.0093
same,surviving fraction,CELECOXIB; 5 nM,1.02 ± 0.012
same,surviving fraction,CELECOXIB; 10 nM,1.018 ± 0.0023
same,surviving fraction,CELECOXIB; 50 nM,1.06 ± 0.028
same,surviving fraction,CELECOXIB; 100 nM,1.08 ± 0.031
same,surviving fraction,CELECOXIB; 500 nM,1.06 ± 0.022
same,surviving fraction,CELECOXIB; 1000 nM,1.024 ± 0.007
same,surviving fraction,GEFITINIB; 0.5 nM,1.01 ± 0.02
same,surviving fraction,GEFITINIB; 1 nM,1.034 ± 0.0087
same,surviving fraction,GEFITINIB; 5 nM,1.041 ± 0.01
same,surviving fraction,GEFITINIB; 10 nM,1.04 ± 0.032
same,surviving fraction,GEFITINIB; 50 nM,1.06 ± 0.033
same,surviving fraction,GEFITINIB; 100 nM,1.07 ± 0.031
same,surviving fraction,GEFITINIB; 500 nM,1.01 ± 0.021
same,surviving fraction,GEFITINIB; 1000 nM,0.973 ± 0.013
same,surviving fraction,[1]; 0.5 nM,1.03 ± 0.013
same,surviving fraction,[1]; 1 nM,1.013 ± 0.0087
same,surviving fraction,[1]; 5 nM,1.01 ± 0.025
same,surviving fraction,[1]; 10 nM,1.006 ± 0.0098
same,surviving fraction,[1]; 50 nM,0.719 ± 0.025
same,surviving fraction,[1]; 100 nM,0.675 ± 0.025
same,surviving fraction,[1]; 500 nM,0.585 ± 0.03
same,surviving fraction,[1]; 1000 nM,0.485 ± 0.012
same,surviving fraction,OSI-906; 0.5 nM,0.9287 ± 0.0055
same,surviving fraction,OSI-906; 1 nM,0.9223 ± 0.0065
same,surviving fraction,OSI-906; 5 nM,0.939 ± 0.019
same,surviving fraction,OSI-906; 10 nM,0.911 ± 0.014
same,surviving fraction,OSI-906; 50 nM,0.965 ± 0.02
same,surviving fraction,OSI-906; 100 nM,0.963 ± 0.013
same,surviving fraction,OSI-906; 500 nM,0.901 ± 0.013
same,surviving fraction,OSI-906; 1000 nM,0.88 ± 0.031
same,surviving fraction,PACLITAXEL; 0.5 nM,1.01 ± 0.011
same,surviving fraction,PACLITAXEL; 1 nM,0.95 ± 0.01
same,surviving fraction,PACLITAXEL; 5 nM,0.085 ± 0.003
same,surviving fraction,PACLITAXEL; 10 nM,0.0507 ± 0.004
same,surviving fraction,PACLITAXEL; 50 nM,0.0357 ± 0.004
same,surviving fraction,PACLITAXEL; 100 nM,0.025 ± 0.001
same,surviving fraction,PACLITAXEL; 500 nM,0.0223 ± 0.0011
same,surviving fraction,PACLITAXEL; 1000 nM,0.0217 ± 0.0015
